What all share (conditions): octanol/water
Data set [1] can be described thus: Partition coefficient (logP) (dodecane).
Data set [2] in a line: Partition coefficient (logP).
Data set [3] in a line: Partition coefficient across water-dodecane interface by statistical simulation.

Where only a bound is given, the exact number is not on record here.

What is called logP is the decadic logarithm of the partition coefficient of the neutral form, usually between octanol and water. The low end stands for lower lipophilicity, the high end for higher lipophilicity.

As to `CC(=O)Nc1ccccc1` [ACETANILIDE], the logP is -1.76 in data set [1] and 1.13 in data set [2]. Taken in the same sequence, the figures for `NC(=O)c1ccccc1N` [ANTHRANILAMIDE] were -2.72 and 0.32. Taken in the same sequence, the figures for `Oc1ccccc1` [PHENOL] were -1.04 and 1.5.

As to `OCc1ccccc1` [BENZYL ALCOHOL], in data set [1], the logP is reported as -0.77.

With `O=[N+]([O-])c1ccccc1` [NITROBENZENE], the logP is 1.43 in data set [1] and 1.84 in data set [2]. On the same counts, the results for `CC(=O)c1ccc(S(C)(=O)=O)cc1` are -1.56 and 0.33. On the same counts, the results for `OC[C@H]1O[C@H](O)[C@H](O)[C@@H](O)[C@@H]1O` are under -3 and -3.02.

For `CC(=O)c1ccccc1` [ACETOPHENONE], the values for the logP in data set [1] and in data set [2] were 0.94 and 1.56, respectively. Taken in the same sequence, the figures for `Brc1cnc2ccccc2c1` were 2.59 and 3.11. Taken in the same sequence, the figures for `CN1C(=O)Cc2ccccc21` were -0.9 and 0.63. As to `COc1ccccc1` [ANISOLE], in data set [1], the log partition coefficient (logP) is 2.06. As to `NC(=O)c1ccccc1` [BENZAMIDE], the logP in data set [1] is -2.67; in data set [2] it was 0.67. Taken in the same sequence, the figures for `NS(=O)(=O)c1ccccc1` [BENZENESULFONAMIDE] were -3.14 and 0.33. On the same counts, the results for `c1ccc2nc3ccccc3cc2c1` [ACRIDINE] are 2.32 and 2.98. Consider `Cc1cc(=O)n(-c2ccccc2)n1C` [ANTIPYRINE], for which the results for the logP in data set [1] and in data set [3] were -2.52 and -2.5, respectively. `Oc1cccc(Cl)c1` showed a logP in data set [1] of -0.34.

For `c1ccc2nccnc2c1` [QUINOXALINE], the results for the logP in data set [1] and in data set [2] were 0.51 and 1.35, respectively. With `O=C1Cc2ccccc2N1` [OXINDOLE], the log partition coefficient (logP) is -1.95 in data set [1] and 1.07 in data set [2].

These data come from ChEMBL document CHEMBL1135392, “Rational determination of transfer free energies of small drugs across the water-oil interface” (J Med Chem, 2002).
